The values below come from article PMC6358866 (International Journal of Molecular Sciences, 2019).

Series [1] concerns Enterococcus faecalis ATCC 29212 biofilm. In words: Activity against biofilms formed on polystyrene 96-well plates, 24 h exposure, resazurin. Format: cell-based. To be noted: polystyrene plate, 24 h exposure in MHB II; for MBEC 50: lowest concentration reducing metabolic activity by at least 50 ± 5%. The protocol: (§1) Bacterial strains were obtained from the Polish Collection of Microorganisms (Polish Academy of Science, Wroclaw, Poland). […] The bacteria were cultured in a Mueller Hinton Broth II (MHB, Biocorp, Warsaw, Poland) overnight, under aerobic conditions at 37 °C. After incubation, the liquid cultures were centrifuged (2500 rpm for 10 min) and washed with phosphoric buffer (PBS, AppliChem, Darmstadt, Germany) three times and resuspended in fresh MHB II for inoculums appropriate for the performed assays.
(§2) Bacterial suspensions were added to 96-well plates (Kartell, Noviglio, Italy) at initial inoculums of ca. 5 × 10^8 CFU/mL and incubated under aerobic conditions with shaking (120 rpm) at 37 °C for 24 h. […] After exposure, the wells were washed three times with PBS and a solution of resazurin (Sigma Aldrich, St. Louis, MO, USA) in MHB II (0.01%) was added. This cell viability reagent is metabolized by bacterial dehydrogenases upon contact with living cells. As a result, the blue dye is reduced to a pink resorufin. After 1.5 h of incubation, the absorbance was measured at 570 and 600 nm using a microplate reader (Thermo Fisher Scientific, Waltham, MA, USA). […] The metabolic activity of bacteria in the samples was measured according to the following formula:
(§3) Metabolic activity (%) = (ΔAbs of sample − ΔAbs of negative control)/(ΔAbs of positive control − ΔAbs of negative control);
(§4) ΔAbs = absorbance at 570 nm − absorbance at 600 nm;
(§5) The presented results are the means of nine results obtained on three different days.
For orientation: Alamar Blue is a resazurin reagent that responds to reducing activity.

The subject of series [2] is Escherichia coli ATCC 25922 biofilm. The series is described as above. It counts as cell-based. To be noted: polystyrene plate, 24 h exposure in MHB II; for MBEC 50: lowest concentration reducing metabolic activity by at least 50 ± 5%. How it is done:
as §1, §2, §3, §4, §5

For series [3], the system named is Pseudomonas aeruginosa ATCC 9027 biofilm. The series is described as above. It counts as cell-based. The settings on record: for MBEC 50: lowest concentration reducing metabolic activity by at least 50 ± 5%; for MBEC 50 / MBEC 90: polystyrene plate, 24 h exposure in MHB II, resazurin; for MBEC 90: lowest concentration reducing metabolic activity by at least 90 ± 5%, mean of nine results. The protocol: as §1, §2, §3, §4, §5

Series [4] concerns Staphylococcus epidermidis ATCC 14990 biofilm. Described as above. To be noted: for MBEC 50: lowest concentration reducing metabolic activity by at least 50 ± 5%; for MBEC 50 / MBEC 90: polystyrene plate, 24 h exposure in MHB II, resazurin; for MBEC 90: lowest concentration reducing metabolic activity by at least 90 ± 5%, mean of nine results. Format: cell-based. How it is done:
as §1, §2, §3, §4, §5

Series [5] relates to Staphylococus aureus ATCC 6538 biofilm. Described as above. It counts as cell-based, Staphylococcus aureus. To be noted: polystyrene plate, 24 h exposure in MHB II, resazurin; for MBEC 50: lowest concentration reducing metabolic activity by at least 50 ± 5%; for MBEC 90: lowest concentration reducing metabolic activity by at least 90 ± 5%, mean of nine results. How it is done:
as §1, §2, §3, §4, §5

Series [6] has the same test system. Kind of series: Activity against biofilms on 96-well plates after withdrawal of the antimicrobial (additional 24 h in MHB II). Format: cell-based, Staphylococcus aureus. To be noted: after withdrawal and additional 24 h in MHB II; for MBEC II 50: lowest concentration giving permanent reduction of metabolic activity by at least 50 ± 5%; for MBEC II 90: lowest concentration giving permanent reduction of metabolic activity by at least 90 ± 5%. The protocol: (§6) Bacterial strains were obtained from the Polish Collection of Microorganisms (Polish Academy of Science, Wroclaw, Poland). Three Gram-positive and two Gram-negative strains linked with CL-related infections were chosen for the study (Staphylococus aureus ATCC 6538, Staphylococcus epidermidis ATCC 14990, Pseudomonas aeruginosa ATCC 9027, Escherichia coli ATCC 25922, and Enterococcus faecalis ATCC 29212). The bacteria were cultured in a Mueller Hinton Broth II (MHB, Biocorp, Warsaw, Poland) overnight, under aerobic conditions at 37 °C. […] Bacterial suspensions were added to 96-well plates (Kartell, Noviglio, Italy) at initial inoculums of ca. 5 × 10^8 CFU/mL and incubated under aerobic conditions with shaking (120 rpm) at 37 °C for 24 h. […] After exposure, the wells were washed three times with PBS and a solution of resazurin (Sigma Aldrich, St. […] This cell viability reagent is metabolized by bacterial dehydrogenases upon contact with living cells. As a result, the blue dye is reduced to a pink resorufin. After 1.5 h of incubation, the absorbance was measured at 570 and 600 nm using a microplate reader (Thermo Fisher Scientific, Waltham, MA, USA). […] The procedure was conducted as described in Section 4.3, with the difference that after exposure to antimicrobials, the wells were washed three times with PBS and pure MHB II was added. The samples were incubated for another 24 h (aerobic conditions, 120 rpm shaking, 37 °C). […] The absorbance was measured at the same wave lengths and metabolic activity was calculated according to the formula given in Section 4.3. The presented results are means of nine results obtained on three different days.

In series [7] the test system is Pseudomonas aeruginosa ATCC 9027 biofilm. The description is as above. It counts as cell-based. The settings on record: for effect of pretreatment on biofilm after withdrawal: PA biofilm on polystyrene, concentrations lower than 32 mg/L, after withdrawal and additional 24 h. How it is done: as §6
For series [8], the system named is Staphylococcus epidermidis ATCC 14990 biofilm. The description is as above. Format: cell-based. The settings on record: after withdrawal and additional 24 h in MHB II; for MBEC II 50: lowest concentration giving permanent reduction of metabolic activity by at least 50 ± 5%; for MBEC II 90: lowest concentration giving permanent reduction of metabolic activity by at least 90 ± 5%. The protocol:
as §6

For series [9], the system named is Enterococcus faecalis ATCC 29212 biofilm. Described as above. Format: cell-based. To be noted: after withdrawal and additional 24 h in MHB II. How it is done: as §6
Series [10] concerns Escherichia coli ATCC 25922 biofilm. Described as above. It counts as cell-based. To be noted: after withdrawal and additional 24 h in MHB II. How it is done:
as §6

Series [11] has as its system human cells (keratinocytes, erythrocytes). To be noted: cited from earlier work. The source says: PA was also the most difficult strain to eliminate from the surface of CL in the previous study, in which we investigated amphibian peptides and short lipopeptides containing hexadecanoic acid according to their potential application as CL solution additives. The results of performed antimicrobial assays were also very promising. However, due to high toxicity towards human keratinocytes in vitro, the ocular applications of lipopeptides with hexadecanoic acid are not worth further consideration. In contrast to those lipopeptides, the compound with two residues of decanoic aci ... || The excellent antimicrobial activity was previously reported for many lipopeptides. This, along with the relatively low production costs, has encouraged many research groups to study their antimicrobial activities and design molecules with optimal properties. C16-KK-NH2 is one of such extensively studied compounds. […] Other derivatives ...

The mark [12] stands for this setting: lowest concentration reducing metabolic activity by at least 90 ± 5%, mean of nine results.
Where [13] appears, read: lowest concentration giving permanent reduction of metabolic activity by at least 50 ± 5%.
Where [14] appears, read: lowest concentration giving permanent reduction of metabolic activity by at least 90 ± 5%.

Consider neomycin (sulfate), for which the “MBEC 50” value in [1] was 64 mg/L; in series [2], 8 mg/L; in series [3], 8 mg/L; in series [4], not above 1 mg/L; in series [5] it was 4 mg/L. In addition, the “reduction of metabolic activity” value in series [3] (PA biofilm on polystyrene, 24 h exposure, 32 mg/L) was 75%. For the same compound, the “MBEC 90” value in series [3] was 64 mg/L; in series [4] it was 16 mg/L; in [5], 64 mg/L. Besides, the “MBEC II 50” value in series [6] is 64 µg/mL; in series [8], 8 µg/mL. The “MBEC II 90” value in series [6] came to 64 µg/mL; in series [8], 16 µg/mL. The “effect of pretreatment on biofilm after withdrawal” value in series [7] is listed as “enhanced metabolism of bacteria in comparison to the positive control”. The “concentration giving a permanent antibiofilm effect” value in series [8] (SE biofilm on polystyrene) is listed as 16 mg/L.
As for `O=C(N[C@H](CO)[C@H](O)c1ccc([N+](=O)[O-])cc1)C(Cl)Cl` [Chloramphenicol], the “MBEC 50” value in series [1] is reported as 32 mg/L; in series [2] it was 8 mg/L; in series [3], 4 mg/L; in series [4] it was 32 mg/L; in [5], 128 mg/L. Besides, the “MBEC 90” value is recorded as more than 256 mg/L in series [1] (setting [12]); 16 mg/L in [2] (setting [12]); 128 mg/L in series [3]; 256 mg/L in [4]; more than 256 mg/L in series [5]. The “reduction of metabolic activities” value in series [3] (PA biofilm on polystyrene, 24 h exposure, 32–64 mg/L) was approximately 70%. In series [4] (SE biofilm on polystyrene, 24 h exposure, 64 mg/L), the “metabolic activity of bacteria” value is approximately 25%. Also, the “MBEC II 50” value is more than 256 µg/mL in series [6]; more than 256 µg/mL in series [9] (setting [13]); more than 256 µg/mL in series [10] (setting [13]); 256 µg/mL in series [7] (lowest concentration giving permanent reduction of metabolic activity by at least 50 ± 5%, after withdrawal and additional 24 h in MHB II); more than 256 µg/mL in series [8]. Besides, the “MBEC II 90” value in [6] is more than 256 µg/mL; in series [9] (setting [14]) it was more than 256 µg/mL; in series [10] (setting [14]) it was more than 256 µg/mL; in series [7] (lowest concentration giving permanent reduction of metabolic activity by at least 90 ± 5%, after withdrawal and additional 24 h in MHB II), more than 256 µg/mL; in series [8] it was more than 256 µg/mL. In [7], the “effect of pretreatment on biofilm after withdrawal” value is recorded as “significant promotion of biofilm growth”.
Turning to C16-KK-NH2, the “toxicity towards human cells” value in series [11] was “high toxicity”.
